Laboratory results as given in US8440652B2, “MST1 kinase inhibitors and methods of their use” (Lexicon Pharmaceuticals, Inc., priority 2011, dated 2013).
Read-outs that look alike come from different tables or passages of the source. Values belong to the compound of their own block, whether it stands above or below them.

Molecular target: T1, MST1 (Homo sapiens, UniProt Q13043)
T1 sequence (Q13043 1-487): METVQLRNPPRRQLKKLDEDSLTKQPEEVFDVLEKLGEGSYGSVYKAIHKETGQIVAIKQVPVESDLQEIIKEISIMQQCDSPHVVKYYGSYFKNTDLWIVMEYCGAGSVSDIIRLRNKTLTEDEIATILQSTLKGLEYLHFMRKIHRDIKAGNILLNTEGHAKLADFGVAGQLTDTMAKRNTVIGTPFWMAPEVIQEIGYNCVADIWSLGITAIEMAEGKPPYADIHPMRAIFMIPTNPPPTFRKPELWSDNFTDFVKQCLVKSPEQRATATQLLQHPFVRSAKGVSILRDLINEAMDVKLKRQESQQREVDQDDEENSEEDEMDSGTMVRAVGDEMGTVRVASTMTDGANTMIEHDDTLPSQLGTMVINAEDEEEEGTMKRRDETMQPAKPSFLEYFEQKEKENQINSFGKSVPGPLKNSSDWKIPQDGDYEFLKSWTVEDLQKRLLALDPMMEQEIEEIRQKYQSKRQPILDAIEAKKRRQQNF
Experiment: In vitro measurement of MST1 inhibition (Z′-Lyte kinase assay)
Type: biochemical
Experimental: Assays were performed in low-volume 384-well black proxiplates (Perkin Elmer, PE-Blk-Proxi-6008269). Eight compounds were first diluted into LDV (Echo) plates using a Multiprobe, at a starting concentration of 1 mM compound in 100% DMSO. Using the ECHO, 75 nl compound was pinged into 384-well proxiplates. The starting concentration of compound in each assay plate is 7.5 uM, followed by 3-fold dilutions, to give quadruplicate ten-point concentration curves. A 3× solution of MST1 enzyme in kinase buffer (Invitrogen, PR4940C) was added to wells containing compound or DMSO controls, followed by a 10 minute preincubation step. Reactions were initiated by adding 5 μL of a mixture of ATP and Z′-Lyte S/T Pep 7 (Invitrogen, PV3180) and proceeded at RT for 1 hour. […] At the end of the kinase reaction, 10 ul of developing solution (Invitrogen, catalog #PR4876B; development buffer A diluted […] in development buffer B) was added to each well and incubated at RT for 1 hr. All wells were read on a Tecan at 400 nm excitation and 460 nm/530 nm emission. Plus and minus enzyme controls were used to calculate percent inhibition and IC50 curves were generated using Excel.

[1] = 1 μM ATP, read-out: IC50 (μM) 1 μM ATP
[2] = 50 μM ATP, read-out: IC50 (μM) 50 μM ATP

IC50 [1]: < 0.05 µM | IC50 [2]: < 0.01 µM
Compound: CNC(=O)N1CCc2cc(-c3nc(-c4ccc(S(=O)(=O)N(C)C5CC5)cc4)cnc3N)ccc21 [5-(3-amino-6-(4-(N-cyclopropyl-N-methylsulfamoyl)phenyl)pyrazin-2-yl)-N-methylindoline-1-carboxamide]

IC50 [1]: < 0.01 µM | IC50 [2]: < 0.01 µM
Compound: [2H]C([2H])([2H])N(C1CC1)S(=O)(=O)c1ccc(-c2cnc(N)c(-c3ccc4c(c3)CCNC4=O)n2)cc1 [4-(5-amino-6-(1-oxo-1,2,3,4-tetrahydroisoquinolin-6-yl)pyrazin-2-yl)-N-cyclopropyl-N-trideuteromethylbenzenesulfonamide]

IC50 [2]: < 0.15 µM
Compound: COCc1ccc(-c2cnc(N)c(C(=O)NC3CCCCC3)n2)cc1 [3-amino-N-cyclohexyl-6-(4-(methoxymethyl)phenyl)pyrazine-2-carboxamide]

IC50 [1]: < 0.01 µM | IC50 [2]: < 0.01 µM
Compound: CCN(CC1CC1)S(=O)(=O)c1ccc(-c2cnc(N)c(-c3ccc4c(c3)CCNC4=O)n2)cc1 [4-(5-amino-6-(1-oxo-1,2,3,4-tetrahydroisoquinolin-6-yl)pyrazin-2-yl)-N-(cyclopropylmethyl)-N-ethylbenzenesulfonamide]

IC50 [1]: < 0.01 µM | IC50 [2]: < 0.01 µM
Compound: CNC1(c2ccc(-c3cnc(N)c(-c4ccc5c(c4)CCNC5=O)n3)cc2)CC1 [6-(3-amino-6-(4-(1-(methylamino)cyclopropyl)phenyl)pyrazin-2-yl)-3,4-dihydroisoquinolin-1(2H)-one]

IC50 [1]: < 0.01 µM | IC50 [2]: < 0.01 µM
Compound: CN(C1CC1)S(=O)(=O)c1ccc(-c2cnc(N)c(-c3ccc4c(c3)CCNC4=O)n2)nc1 [6-(5-amino-6-(1-oxo-1,2,3,4-tetrahydroisoquinolin-6-yl)pyrazin-2-yl)-N-cyclopropyl-N-methylpyridine-3-sulfonamide]

IC50 [1]: < 0.01 µM | IC50 [2]: < 0.01 µM
Compound: Nc1ncc(-c2ccc(S(=O)(=O)NC3CC3)cc2)nc1-c1cc2c(cn1)C(=O)NCC2 [4-(5-amino-6-(8-oxo-5,6,7,8-tetrahydro-2,7-naphthyridin-3-yl)pyrazin-2-yl)-N-cyclopropylbenzenesulfonamide]

IC50 [1]: < 0.01 µM | IC50 [2]: < 0.01 µM
Compound: Nc1ncc(-c2ccc(S(=O)(=O)NC3CC3)cc2)nc1-c1ccc2c(c1)OCCNC2=O [4-(5-amino-6-(5-oxo-2,3,4,5-tetrahydrobenzo[f][1,4]oxazepin-8-yl)pyrazin-2-yl)-N-cyclopropylbenzenesulfonamide]

IC50 [2]: < 0.15 µM
Compound: COc1ccc(-c2cnc(N)c(C(=O)NC3CCCCC3)n2)cc1OC [3-amino-N-cyclohexyl-6-(3,4-dimethoxyphenyl)pyrazine-2-carboxamide]

Further lines, the compound ahead of its results:

Compound: CN(C)C(C)(C)c1ccc(-c2cnc(N)c(-c3ccc4c(c3)CCNC4=O)c2)cc1 [6-(2-amino-5-(4-(2-(dimethylamino)propan-2-yl)phenyl)pyridin-3-yl)-3,4-dihydroisoquinolin-1(2H)-one]
IC50 [1]: < 0.05 µM | IC50 [2]: < 0.01 µM

Compound: Cc1cc(-c2cnc(N)c(-c3ccc4c(c3)CCNC4=O)c2)ncc1S(=O)(=O)NC1CC1 [6′-amino-N-cyclopropyl-4-methyl-5′-(1-oxo-1,2,3,4-tetrahydroisoquinolin-6-yl)-[2,3′-bipyridine]-5-sulfonamide]
IC50 [1]: < 0.01 µM | IC50 [2]: < 0.01 µM

Compound: N#CC1(c2ccc(-c3cnc(N)c(-c4ccc5c(=O)[nH]ccc5c4)n3)cc2)CC1 [1-(4-(5-amino-6-(1-oxo-1,2-dihydroisoquinolin-6-yl)pyrazin-2-yl)phenyl)cyclopropanecarbonitrile]
IC50 [1]: < 0.05 µM | IC50 [2]: < 0.01 µM

Compound: CN(C1CC1)S(=O)(=O)c1ccc(-c2cnc(N)c(-c3ccc4c(c3)C3(CC3)NC4=O)c2)cc1 [4-(6-amino-5-(3′-oxospiro[cyclopropane-1,1′-isoindolin]-6′-yl)pyridin-3-yl)-N-cyclopropyl-N-methylbenzenesulfonamide]
IC50 [1]: < 0.01 µM | IC50 [2]: < 0.01 µM

Compound: N#CC1(c2ccc(-c3cnc(N)c(-c4ccc5c(c4)C4(CC4)NC5=O)n3)cc2)CC1 [1-(4-(5-amino-6-(3′-oxospiro[cyclopropane-1,1′-isoindolin]-6′-yl)pyrazin-2-yl)phenyl)cyclopropanecarbonitrile]
IC50 [1]: < 0.05 µM | IC50 [2]: < 0.01 µM

Compound: NC(=O)c1ccc(-c2cc(-c3cn[nH]c3)cnc2N)cc1 [4-(2-amino-5-(1H-pyrazol-4-yl)pyridin-3yl)benzamide]
IC50 [2]: < 0.15 µM

Compound: C[C@H]1COc2cc(-c3cc(-c4ccc(S(=O)(=O)N(C)C5CC5)cc4)cnc3N)ccc2C(=O)N1 [(S)-4-(6-amino-5-(3-methyl-5-oxo-2,3,4,5-tetrahydrobenzo[f][1,4]oxazepin-8-yl)pyridin-3-yl)-N-cyclopropyl-N-methylbenzenesulfonamide]
IC50 [1]: < 0.05 µM | IC50 [2]: < 0.01 µM

Compound: Nc1ncc(-c2ccc(S(F)(F)(F)(F)F)cc2)nc1-c1ccc2c(c1)CCNC2=O [6-(3-amino-6-(4-(pentafluorosulfanyl)phenyl)pyrazin-2-yl)-3,4-dihydroisoquinolin-1(2H)-one]
IC50 [1]: < 0.15 µM | IC50 [2]: < 0.05 µM

Compound: Nc1ncc(-c2ccc(S(=O)(=O)NC3CC3)c(F)c2)cc1-c1ccc2c(c1)CCNC2=O [4-(6-amino-5-(1-oxo-1,2,3,4-tetrahydroisoquinolin-6-yl)pyridin-3-yl)-N-cyclopropyl-2-fluorobenzenesulfonamide]
IC50 [1]: < 0.01 µM | IC50 [2]: < 0.01 µM

Compound: N#Cc1ccc(-c2cnc(N)c(-c3ccc4c(c3)CCNC4=O)n2)cc1 [4-(5-amino-6-(1-oxo-1,2,3,4-tetrahydroisoquinolin-6-yl)pyrazin-2-yl)benzonitrile]
IC50 [1]: < 0.05 µM | IC50 [2]: < 0.01 µM

Compound: Nc1ncc(-c2ccc(C3(O)CCOCC3)cc2)nc1-c1ccc2c(c1)CCNC2=O [6-(3-amino-6-(4-(4-hydroxytetrahydro-2H-pyran-4-yl)phenyl)pyrazin-2-yl)-3,4-dihydroisoquinolin-1(2H)-one]
IC50 [1]: < 0.05 µM | IC50 [2]: < 0.01 µM

Compound: CC(C)(O)c1ccc(-c2cnc(N)c(-c3ccc4c(c3)CCNC4=O)n2)cc1 [6-(3-amino-6-(4-(2-hydroxypropan-2-yl)phenyl)pyrazin-2-yl)-3,4-dihydroisoquinolin-1(2H)-one]
IC50 [1]: < 0.05 µM | IC50 [2]: < 0.01 µM

Compound: N#CC1(c2ccc(-c3cnc(N)c(-c4ccc5c(c4)C4(CC4)CNC5=O)n3)cc2)CC1 [1-(4-(5-amino-6-(1′-oxo-2′,3′-dihydro-1′H-spiro[cyclopropane-1,4′-isoquinolin]-6′-yl)pyrazin-2-yl)phenyl)cyclopropanecarbonitrile]
IC50 [1]: < 0.01 µM | IC50 [2]: < 0.01 µM

Compound: CCOc1cc(-c2cc(-c3ccc(F)cc3)cnc2N)ccc1C(N)=O [4-(2-amino-5-(4-fluorophenyl)pyridin-3-yl)-2-ethoxybenzamide]
IC50 [2]: < 0.15 µM

Compound: N#CCc1ccc(-c2cnc(N)c(-c3ccc4c(c3)CCNC4=O)n2)s1 [2-(5-(5-amino-6-(1-oxo-1,2,3,4-tetrahydroisoquinolin-6-yl)pyrazin-2-yl)thiophen-2-yl)acetonitrile]
IC50 [1]: < 0.05 µM | IC50 [2]: < 0.01 µM

Compound: CCN(C)S(=O)(=O)c1ccc(-c2cnc(N)c(-c3ccc4c(c3)CCNC4=O)c2)cc1 [4-(6-amino-5-(1-oxo-1,2,3,4-tetrahydroisoquinolin-6-yl)pyridin-3-yl)-N-ethyl-N-methylbenzenesulfonamide]
IC50 [1]: < 0.01 µM | IC50 [2]: < 0.01 µM

Compound: N#CC1(c2ccc(-c3cnc(N)c(-c4ccc5c(c4)CCCNC5=O)n3)cc2)CCOCC1 [4-(4-(5-amino-6-(1-oxo-2,3,4,5-tetrahydro-1H-benzo[c]azepin-7-yl)pyrazin-2-yl)phenyl)tetrahydro-2H-pyran-4-carbonitrile]
IC50 [1]: < 0.05 µM | IC50 [2]: < 0.01 µM
